{
  "source": "patent US10668033B2",
  "about": "“Modulators of the prostacyclin (PGI2) receptor useful for the treatment of disorders related thereto” (Arena Pharmaceuticals, Inc., priority 2008, dated 2020)",
  "key": {"[1]": {"system": "MCT-induced pulmonary arterial hypertension", "test": "Rat monocrotaline (MCT) model of pulmonary arterial hypertension", "type": "in vivo", "settings": "30 mg/kg oral gavage twice a day for 21 days; 60 mg/kg MCT s.c.; male Wistar rats", "experimental": "Male Wistar rats (100-150 g at start of study) (Charles River Laboratories, Wilmington, Mass.) were housed two per cage and maintained in a humidity—(40-60%) and temperature—(68-72° F.) controlled facility on a 12 hr:12 hr light/dark cycle (lights on at 6:30 am) with free access to food (Harlan Teklad, Orange Calif., Rodent Diet 8604) and water. Rats were allowed one week of habituation to the animal facility before testing.\nThe rat monocrotaline (MCT) model is a standard and well-accepted model of pulmonary arterial hypertension. MCT induces acute pulmonary endothelial damage associated with pulmonary vascular inflammation. […]\nRats were randomly given a single subcutaneous injection of either 60 mg/kg MCT (Sigma, St. Louis, Mo.) or 0.9% saline (sham) and assigned to receive oral administration of 20% hydroxypropyl beta-cyclodextrin (vehicle) or test compound (30 mg/kg; FIGS. 7 and 8). […] Heart chamber weights were measured on Day 22. […] The ratio of right ventricular (RV) weight to left ventricle plus septum (LV+S) weight (this ratio is indicated as “RV/(LV+S)” in FIGS. 7 and 8) was calculated as an index of the hypertrophic response to the induced pulmonary arterial hypertension and, as such, as an index of a test compound's therapeutic efficacy for pulmonary arterial hypertension."}, "[2]": {"test": "Pharmacokinetics in rats after oral administration of Compound 99", "type": "in vivo, Sprague-Dawley rat", "settings": "plasma analyte after 1.25 mg/kg oral dose of Compound 99, male rats", "experimental": "Blood samples were obtained from 0.100 to 21.0 h post-dose for plasma drug concentration measurements. […] Pharmacokinetic parameters were estimated using non-compartmental pharmacokinetic analysis."}, "[3]": {"test": "Plasma profile in rats after 10 mg/kg oral dose of Compound 22 sodium salt", "type": "in vivo", "settings": "rat, after a 10 mg/kg oral dose of Compound 22 (sodium salt, FIG. 25), male rats"}, "[4]": {"test": "Excipient compatibility (stability) study", "type": "physicochemical", "settings": "four weeks in a glass vial at 50° C.", "experimental": "Compound 22 was tested for stability in three of the excipients."}, "[5]": {"test": "Dynamic vapor sorption (DVS) hygroscopicity", "type": "physicochemical", "settings": "at 90% relative humidity; listed as Form 1 of the sodium salt of Compound 22", "experimental": "Hygroscopicity was measured using a dynamic moisture-sorption analyzer, VTI Corporation, SGA-100. The sample was placed as-is in a tared sample holder on the VTI balance. A drying step was run at 40° C. and ˜1% RH for 60 to 120 min. The isotherm conditions are 25° C. with steps of 20% RH from 10% RH up to 90% RH and back to 10% RH. The weight was checked every 2 min. Percent weight change of <0.01% in 20 min or 2 h, whichever occurs first, is required before continuing to the next step."}, "[6]": {"test": "Excipient solubility study"}},
  "data": [
    {"smiles": "O=C(O)COC[C@H]1CC[C@H](COC(=O)N(c2ccccc2)c2ccc(Cl)cc2)CC1", "note": "[Compound 22, 2-(((1r,4r)-4-(((4-chlorophenyl)(phenyl)carbamoyloxy)methyl)cyclohexyl)methoxy)acetic acid]", "values": [
      {"measurement": "hypertrophic response, RV/(LV+S)", "setting": "[1]", "result": "inhibited the hypertrophic response"},
      {"measurement": "AUC(0-t)", "setting": "[2]; Sprague-Dawley, rat", "result": 935, "unit": "ng·h/mL"},
      {"measurement": "Cmax", "setting": "[2]; Sprague-Dawley, rat", "result": 214, "unit": "ng/mL"},
      {"measurement": "half-life", "setting": "[2]; Sprague-Dawley, rat, read-out: terminal phase half-life (T1/2) (converted)", "result": 211, "unit": "min"},
      {"measurement": "time of Cmax", "setting": "[2]", "result": 2.67, "unit": "h"},
      {"measurement": "Tmax", "setting": "[3]", "result": 1.5, "unit": "h"},
      {"measurement": "stability in solution", "setting": "[4]; Cremophor RH 40", "result": "no observable degradation or API assay loss"},
      {"measurement": "stability in solution", "setting": "[4]; Imwitor 742", "result": "no observable degradation or API assay loss"},
      {"measurement": "stability in solution", "setting": "[4]; TPGS 1000", "result": "no observable degradation or API assay loss"}
    ]},
    {"smiles": "O=C([O-])COC[C@H]1CC[C@H](COC(=O)N(c2ccccc2)c2ccc(Cl)cc2)CC1.[Na+]", "note": "[Sodium Salt of Compound 22, sodium 2-(((1r,4r)-4-(((4-chlorophenyl)(phenyl)carbamoyloxy)methyl)cyclohexyl)methoxy)acetate]", "values": [
      {"measurement": "DVS absorption", "setting": "[5]", "result": "less than 0.25%"},
      {"measurement": "Solubility", "setting": "[6]; Corn Oil", "result": "<0.10", "unit": "mg/mL"},
      {"measurement": "Solubility", "setting": "[6]; Cremophor RH 40", "result": 7.82, "unit": "mg/mL"},
      {"measurement": "Solubility", "setting": "[6]; Gelucire 44/14", "result": 1.61, "unit": "mg/mL"},
      {"measurement": "Solubility", "setting": "[6]; Gelucire 50/13", "result": "<10", "unit": "mg/mL"},
      {"measurement": "Solubility", "setting": "[6]; Imwitor 742", "result": 16.20, "unit": "mg/mL"},
      {"measurement": "Solubility", "setting": "[6]; Labrasol", "result": 12.98, "unit": "mg/mL"},
      {"measurement": "Solubility", "setting": "[6]; Lauroglycol 90", "result": 0.26, "unit": "mg/mL"},
      {"measurement": "Solubility", "setting": "[6]; PEG400", "result": 4.85, "unit": "mg/mL"},
      {"measurement": "Solubility", "setting": "[6]; PEG6000", "result": "<10", "unit": "mg/mL"},
      {"measurement": "Solubility", "setting": "[6]; Safflower oil", "result": "<0.10", "unit": "mg/mL"},
      {"measurement": "Solubility", "setting": "[6]; TPGS 1000", "result": 2.55, "unit": "mg/mL"}
    ]}
  ]
}
